The text below walks through data of patent US7026318B2 (Shionogi & Co., Ltd., priority 2000, dated 2006).

Data set [1] has as its target human type I enzyme (sPLA2) (Homo sapiens, UniProt P04054). Nature of the data set: Inhibition test of human secretory phospholipase A2, chromogenic assay, type I enzyme. Format: biochemical. Conditions: recombinant human sPLA2 type I, chromogenic assay, 30 min; read-out: IC50 type I.
Data set [2] deals with T1, human type II enzyme (sPLA2) (Homo sapiens, UniProt P14555).
T1 sequence (P14555 21-144): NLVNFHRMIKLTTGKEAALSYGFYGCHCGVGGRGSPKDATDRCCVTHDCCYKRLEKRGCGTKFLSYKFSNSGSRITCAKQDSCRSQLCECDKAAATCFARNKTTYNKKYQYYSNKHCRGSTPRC
The data set can be described thus: Inhibition test of human secretory phospholipase A2, chromogenic assay, type II enzyme. Format: biochemical. Conditions: human sPLA2 type II, chromogenic assay, 30 min; read-out: IC50 type II.

Another data set deals with T2, human type V sPLA2 (Homo sapiens, UniProt P39877).
T2 construct: made in house; unpurified culture supernatant
T2 sequence (P39877 21-138): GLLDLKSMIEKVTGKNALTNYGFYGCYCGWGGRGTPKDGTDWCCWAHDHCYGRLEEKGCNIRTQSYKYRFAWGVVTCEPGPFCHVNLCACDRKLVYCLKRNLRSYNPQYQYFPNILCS
Nature of the data set: Inhibition test of human secretory phospholipase A2, chromogenic assay, type V enzyme. In kind it is biochemical. Conditions: human sPLA2 type V (CHO supernatant), chromogenic assay, 45 min; read-out: IC50 type V.

A further data set addresses T3, human type X sPLA2 (Homo sapiens, UniProt O15496).
T3 construct: made in house; unpurified culture supernatant
T3 sequence (O15496 43-165): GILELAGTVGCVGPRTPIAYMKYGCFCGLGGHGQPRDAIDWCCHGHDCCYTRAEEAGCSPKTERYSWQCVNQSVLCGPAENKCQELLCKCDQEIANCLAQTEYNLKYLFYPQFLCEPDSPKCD
Nature of the data set: Inhibition test of human secretory phospholipase A2, chromogenic assay, type X enzyme. In kind it is biochemical.

[3] abbreviates: human sPLA2 type X (CHO supernatant), chromogenic assay, 30 min, read-out: IC50 type X.

Where two headings read alike, the source gives them in different places. Bounds are passed on as bounds.

Chain of human type I enzyme (sPLA2) (P04054 23-148): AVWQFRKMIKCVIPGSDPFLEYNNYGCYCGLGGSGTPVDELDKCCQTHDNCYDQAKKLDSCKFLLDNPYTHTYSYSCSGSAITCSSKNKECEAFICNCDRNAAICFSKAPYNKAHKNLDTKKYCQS

Take `CCS(=O)(=O)NC(=O)COc1cccc2c1c(C(=O)C(N)=O)c(CC(C)C)n2Cc1ccccc1`: the melting point (in general, the temperature, or range, at which the solid turns liquid) is 200 to 201 °C.
For `CCCS(=O)(=O)NC(=O)COc1cccc2c1c(C(=O)C(N)=O)c(CC(C)C)n2Cc1ccccc1`, the melting point is 181 to 183 °C.
Still for that read-out and setting: the value for `CC(C)Cc1c(C(=O)C(N)=O)c2c(OCC(=O)NS(=O)(=O)C(C)C)cccc2n1Cc1ccccc1` was 218.5 to 220 °C.
Molecule `CCCCS(=O)(=O)NC(=O)COc1cccc2c1c(C(=O)C(N)=O)c(CC(C)C)n2Cc1ccccc1` returned a melting point of 219.5 to 221 °C.
As to `Cc1cn2c(Cc3ccccc3)c(CC(C)C)c(C(=O)C(N)=O)c2c(OCC(=O)O)n1` [Compound I-1], the melting point is 206 to 208 °C. In addition, in data set [1], the IC50 (usually the point on the concentration scale where inhibition reaches its midpoint) was more than 700 nM. Moreover, in data set [2], the IC50 is more than 1000 nM. In addition, at human type V sPLA2, the IC50 was more than 1000 nM. Moreover, the half-inhibitory concentration (IC50) at human type X sPLA2 (setting [3]) was found to be 32 nM.
Molecule `Cc1cn2c(CC3CCCCC3)c(CC(C)C)c(C(=O)C(N)=O)c2c(OCC(=O)O)n1` [Compound I-2] had a melting point of 209 to 210 °C. Also, in data set [1], the IC50 is more than 700 nM. In addition, in data set [2], the IC50 was more than 1000 nM. The IC50 on human type V sPLA2 was more than 1000 nM. On human type X sPLA2 (setting [3]), the IC50 came out at 43 nM.
Take `Cc1cn2c(CC3CCCC3)c(CC(C)C)c(C(=O)C(N)=O)c2c(OCC(=O)O)n1` [Compound I-3]: the melting point lay within 193 to 194.5 °C. In data set [1], the 50% inhibitory concentration (IC50) is more than 700 nM. Moreover, the IC50 in data set [2] is more than 1000 nM. In addition, the IC50 on human type V sPLA2 is more than 1000 nM. For the same molecule, the IC50 at human type X sPLA2 (setting [3]) came out at 48 nM.
In turn, `CCCCc1c(C(=O)C(N)=O)c2c(OCC(=O)O)nc(C)cn2c1Cc1ccccc1` [Compound I-5] yielded a melting point of 205 to 207 °C.
As for `Cc1cn2c(Cc3ccccc3)c(Cc3ccccc3)c(C(=O)C(N)=O)c2c(OCC(=O)O)n1` [Compound I-7], the melting point was 258 to 260 °C.
On to `Cc1cc(OCC(=O)O)c2c(C(=O)C(N)=O)c(CC(C)C)c(Cc3ccccc3)n2n1` [Compound I-9], for which the melting point lay in the range of 245 to 247 °C. The IC50 in data set [1] was more than 700 nM. For the same molecule, the IC50 in data set [2] is more than 1000 nM. In addition, at human type V sPLA2, the IC50 is more than 1000 nM. For the same molecule, the 50% inhibitory concentration (IC50) at human type X sPLA2 (setting [3]) was 22 nM.
`CC(C)Cc1c(C(=O)C(N)=O)c2c(OCC(=O)O)cccc2n1Cc1ccc(F)cc1` [Compound I-11]: the melting point fell in the range of 172 to 173.5 °C. In data set [1], the IC50 is more than 700 nM. Moreover, in data set [2], the IC50 was more than 1000 nM. Moreover, the IC50 at human type V sPLA2 was more than 1000 nM. The half-inhibitory concentration (IC50) against human type X sPLA2 was found to be 12 nM.
Take `CC(C)Cc1c(C(=O)C(N)=O)c2c(OCC(=O)O)cccc2n1CC1CCCCC1` [Compound I-12]: the melting point fell in the range of 195.5 to 197 °C. For the same molecule, the IC50 in data set [1] was more than 700 nM. Further, the IC50 in data set [2] was more than 1000 nM. Also, the IC50 at human type V sPLA2 is more than 1000 nM. At human type X sPLA2, this molecule yielded an IC50 of 32 nM.
For `Cc1cc(OCC(=O)O)c2c(C(=O)C(N)=O)c(CC(C)C)n(Cc3ccccc3)c2c1` [Compound I-13], the melting point was 220 to 221.5 °C. In data set [1], the IC50 was more than 700 nM. The IC50 in data set [2] is more than 1000 nM. Further, the IC50 on human type V sPLA2 is more than 1000 nM. On human type X sPLA2, half-maximal inhibition (IC50) required 28 nM.
In turn, `CC(C)Cc1c(C(=O)C(N)=O)c2c(OCC(=O)O)cccc2n1-c1ccccc1` [Compound I-14] displayed a melting point of 200.5 to 202 °C.
`Cc1cn2c(Cc3ccccc3)c(CC(C)C)c(C(=O)C(N)=O)c2c(OCC(=O)NS(=O)(=O)c2ccccc2)n1` [Compound I-15]: the melting point is 193 to 195 °C. The half-inhibitory concentration (IC50) in data set [1] was more than 700 nM. Moreover, the IC50 in data set [2] was more than 1000 nM. Moreover, on human type V sPLA2, the IC50 is more than 1000 nM. Further, at human type X sPLA2 (setting [3]), the IC50 worked out at 37 nM.
Turning to `Cc1cn2c(Cc3ccccc3)c(CC(C)C)c(C(=O)C(N)=O)c2c(OCC(=O)NS(C)(=O)=O)n1` [Compound I-16], the melting point was 211 to 212 °C.
The molecule `CCS(=O)(=O)NC(=O)COc1nc(C)cn2c(Cc3ccccc3)c(CC(C)C)c(C(=O)C(N)=O)c12` [Compound I-17] yielded a melting point of 214 to 215 °C.
Regarding `CCCS(=O)(=O)NC(=O)COc1nc(C)cn2c(Cc3ccccc3)c(CC(C)C)c(C(=O)C(N)=O)c12` [Compound I-18], the melting point fell in the range of 205 to 207 °C.
`Cc1cn2c(Cc3ccccc3)c(CC(C)C)c(C(=O)C(N)=O)c2c(OCC(=O)NS(=O)(=O)C(C)C)n1` [Compound I-19] returned a melting point of 196 to 198 °C.
`Cc1cc(OCC(=O)NS(=O)(=O)c2ccccc2)c2c(C(=O)C(N)=O)c(CC(C)C)n(Cc3ccccc3)c2c1` [Compound I-24] registered a melting point of 145 to 147 °C. The IC50 in data set [1] is more than 700 nM. Further, in data set [2], the half-maximal inhibitory concentration (IC50) was more than 1000 nM. At human type V sPLA2, the IC50 is more than 1000 nM. The molecule also displayed an IC50 against human type X sPLA2 of 23 nM.
Molecule `Cc1cc(OCC(=O)NS(C)(=O)=O)c2c(C(=O)C(N)=O)c(CC(C)C)n(Cc3ccccc3)c2c1` [Compound I-25] had a melting point of 211 to 214 °C. The IC50 in data set [1] was more than 700 nM. Besides, the IC50 in data set [2] was more than 1000 nM. On human type V sPLA2, the IC50 was more than 1000 nM. In addition, the concentration for half-maximal inhibition (IC50) against human type X sPLA2 was 7 nM.
Take `Cc1cc(OCC(=O)NS(=O)(=O)c2ccccc2)c2c(C(=O)C(N)=O)c(CC(C)C)c(Cc3ccccc3)n2n1` [Compound I-32]: the IC50 in data set [1] was more than 700 nM; in data set [2] it was more than 1000 nM; on human type V sPLA2 it was more than 1000 nM; at human type X sPLA2 (setting [3]) it was 46 nM.
`CC(C)Cc1c(CC(N)=O)c2c(OCC(=O)NS(=O)(=O)C(C)C)cccc2n1Cc1ccccc1` [Compound I-34]: the melting point is 189 to 190 °C.
Same read-out and setting: the figure for `Cc1cn2c(Cc3ccccc3)c(CC(C)C)c(CC(N)=O)c2c(OCC(=O)NS(C)(=O)=O)n1` [Compound I-35] is 188 to 190 °C; for `Cc1cn2c(Cc3ccccc3)c(CC(C)C)c(CC(N)=O)c2c(OCC(=O)NS(=O)(=O)C(C)C)n1` [Compound I-36] it is 162 to 163 °C.
